{
  "source": "patent US20100075942A1",
  "about": "“N-PHENYL-4-PYRIDIN-2-YL-BENZAMIDE DERIVATIVES AS HISTONE DEACYLASE (HDAC) INHIBITORS FOR THE TREATMENT OF CANCER” (ASTRAZENECA AB, priority 2005, published 2010)",
  "key": {"recombinant human HDAC1": {"biological_target": "T1, recombinant human HDAC1 (Homo sapiens, UniProt Q13547)", "T1 construct": "FLAG (C); made in house; host or cells: Hi5 insect cells", "T1 sequence (Q13547 whole entry)": "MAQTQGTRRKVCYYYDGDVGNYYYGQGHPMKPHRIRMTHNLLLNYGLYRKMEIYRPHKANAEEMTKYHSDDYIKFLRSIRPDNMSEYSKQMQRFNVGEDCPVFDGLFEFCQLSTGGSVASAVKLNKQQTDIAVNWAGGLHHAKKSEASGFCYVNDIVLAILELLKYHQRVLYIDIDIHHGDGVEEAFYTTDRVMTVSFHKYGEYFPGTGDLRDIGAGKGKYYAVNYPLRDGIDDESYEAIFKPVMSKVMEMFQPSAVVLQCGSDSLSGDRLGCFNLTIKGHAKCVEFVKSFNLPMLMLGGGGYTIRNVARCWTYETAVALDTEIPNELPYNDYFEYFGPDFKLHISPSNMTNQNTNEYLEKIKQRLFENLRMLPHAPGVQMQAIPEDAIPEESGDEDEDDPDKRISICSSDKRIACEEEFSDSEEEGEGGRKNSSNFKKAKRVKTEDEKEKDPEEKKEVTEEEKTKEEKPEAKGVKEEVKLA", "assay": "In vitro enzyme assay of recombinant HDAC1 (Test (a))", "assay_type": "biochemical", "conditions": "recombinant human HDAC1 produced in Hi5 insect cells; acetylated histone H4 peptide, Fluor de Lys", "experimental": "HDAC inhibitors were screened against recombinant human HDAC1 produced in Hi5 insect cells. The enzyme was cloned with a FLAG tag at the C-terminal of the gene and affinity purified using Anti-FLAG M2 agarose from SIGMA (A2220).\nThe deacetylase assays were carried out in a 50 μl reaction. HDAC1 (75 ng of enzyme) diluted in 15 μl of reaction buffer (25 mM TrisHC1 (pH 8), 137 mM NaCl, 2.7 mM KCl, 1 mM MgCl2) was mixed with either buffer alone (10 μl) or buffer containing compound (10 μl for 30 minutes at ambient temperature. 25 μM acetylated histone H4 peptide (KI 174 Biomol) diluted in 25 μl of buffer was then added to the reaction and incubated for one hour at ambient temperature. The reaction was stopped by addition of an equal volume (50 μl) Fluor de Lys developer (Biomol) containing Trichostatin A at 2 μM. The reaction was allowed to develop for 30 minutes at ambient temperature and then fluorescence measured at an excitation wavelength of 360 nm and an emission wavelength of 465 nm. IC50 values for HDAC enzyme inhibitors were determined by performing dose response curves with individual compounds and determining the concentration of inhibitor producing fifty percent decrease in the maximal signal (diluent control). • (b) In Vitro Assay of Inhibition of Proliferation in Whole Cells"}, "HCT116 cells": {"tested_on": "HCT116 cells", "assay": "In vitro assay of inhibition of proliferation in whole cells, MTS (Test (b))", "assay_type": "cell-based", "conditions": "Homo sapiens, HCT-116, 72 hours treatment", "experimental": "Inhibition of proliferation in whole cells was assayed using the Promega cell titer 96 aqueous proliferation assay (Promega #G5421). HCT116 cells were seeded in 96 well plates at 1×10^3 cells/well, and allowed to adhere overnight. They were treated with inhibitors for 72 hours. 20 μl of the tetrazolium dye MTS was added to each well and the plates were reincubated for 3 hours. Absorbance was then measured on a 96 well plate reader at […]. The IC50 values for HDAC inhibitors were determined by performing dose response curves with individual compounds and determining the concentration of inhibitor producing fifty percent decrease in maximal signal (diluent control). • (c) In Vitro Enzyme Assay of Histone Deacetylase Activity in Whole Cells"}},
  "data": [
    {"molecule": "Nc1ccccc1NC(=O)c1ccc(-c2ncc(CNCCN3CCCC3)cc2Cl)cc1", "note": "[2 (8), N-(2-aminophenyl)-4-(3-chloro-5-{[(2-pyrrolidin-1-ylethyl)amino]methyl}pyridin-2-yl)benzamide]", "values": [
      {"measurement": "IC50", "setting": "recombinant human HDAC1", "result": 16, "unit": "nM"},
      {"measurement": "IC50", "setting": "HCT116 cells", "result": 400, "unit": "nM"}
    ]},
    {"molecule": "Nc1ccccc1NC(=O)c1ccc(-c2ncc(C(=O)NCCN3CCCC3)cc2Cl)cc1", "note": "[5 (1), N-(2-aminophenyl)-4-[3-chloro-5-(N-2-[pyrrolidin-1-yl]ethyl-carbamoyl)-pyridin-2-yl]benzamide]", "values": [
      {"measurement": "IC50", "setting": "recombinant human HDAC1", "result": 9, "unit": "nM"},
      {"measurement": "IC50", "setting": "HCT116 cells", "result": 220, "unit": "nM"}
    ]},
    {"molecule": "CCCCNCc1cnc(-c2ccc(C(=O)Nc3ccccc3N)cc2)c(Cl)c1", "note": "[Example 1, N-(2-Aminophenyl)-4-{5-[(butylamino)methyl]-3-chloropyridin-2-yl}benzamide]", "values": [
      {"measurement": "IC50", "setting": "recombinant human HDAC1", "result": 9, "unit": "nM"},
      {"measurement": "IC50", "setting": "HCT116 cells", "result": 160, "unit": "nM"}
    ]}
  ]
}
